Experimental data reported in the NIST ThermoML archive (doi:10.1021/je034002l).

Assay: xn = mol fraction of the nth substance listed
Conditions: 101.3 kPa, Liquid

CCCCCCCl [1-chlorohexane] + CCCCCC
Conditions | mass density [kg/m3] | viscosity [mPa·s]
293.15 K, x1 = 0.1 | 683.01 | 0.3403
293.15 K, x1 = 0.15 | 694.01 | 0.3532
293.15 K, x1 = 0.2 | 706.37 | 0.3669
293.15 K, x1 = 0.3 | 728.21 | 0.3965
293.15 K, x1 = 0.5 | 771.87 | 0.4691
293.15 K, x1 = 0.7 | 815.39 | 0.5662
293.15 K, x1 = 0.9 | 856.91 | 0.6932
293.15 K, x1 = 1 | 878.52 | 0.7704
298.15 K, x1 = 0.1 | 678.51 | 0.3263
298.15 K, x1 = 0.15 | 689.61 | 0.3384
298.15 K, x1 = 0.2 | 701.84 | 0.352
298.15 K, x1 = 0.3 | 723.73 | 0.3794
298.15 K, x1 = 0.5 | 767.36 | 0.4464
298.15 K, x1 = 0.7 | 810.91 | 0.5367
298.15 K, x1 = 0.9 | 852.37 | 0.6495
298.15 K, x1 = 1 | 873.75 | 0.7173
303.15 K, x1 = 0.1 | 673.93 | 0.313
303.15 K, x1 = 0.15 | 685.15 | 0.3245
303.15 K, x1 = 0.2 | 697.27 | 0.3377
303.15 K, x1 = 0.3 | 719.21 | 0.3632
303.15 K, x1 = 0.5 | 762.82 | 0.4254
303.15 K, x1 = 0.7 | 806.39 | 0.5094
303.15 K, x1 = 0.9 | 847.8 | 0.6103
303.15 K, x1 = 1 | 868.98 | 0.6702
308.15 K, x1 = 0.1 | 669.37 | 0.2998
308.15 K, x1 = 0.15 | 680.63 | 0.3107
308.15 K, x1 = 0.2 | 692.67 | 0.3233
308.15 K, x1 = 0.3 | 714.64 | 0.3475
308.15 K, x1 = 0.5 | 758.26 | 0.4061
308.15 K, x1 = 0.7 | 801.83 | 0.4844
308.15 K, x1 = 0.9 | 843.21 | 0.5754
308.15 K, x1 = 1 | 864.21 | 0.6283
313.15 K, x1 = 0.1 | 664.73 | 0.2881
313.15 K, x1 = 0.15 | 676.04 | 0.2985
313.15 K, x1 = 0.2 | 688.03 | 0.3109
313.15 K, x1 = 0.3 | 710.03 | 0.3337
313.15 K, x1 = 0.5 | 753.66 | 0.3884
313.15 K, x1 = 0.7 | 797.24 | 0.4614
313.15 K, x1 = 0.9 | 838.59 | 0.5436
313.15 K, x1 = 1 | 859.44 | 0.591
318.15 K, x1 = 0.1 | 660.04 | 0.2765
318.15 K, x1 = 0.15 | 671.39 | 0.2865
318.15 K, x1 = 0.2 | 683.36 | 0.2984
318.15 K, x1 = 0.3 | 705.37 | 0.3201
318.15 K, x1 = 0.5 | 749.03 | 0.372
318.15 K, x1 = 0.7 | 792.61 | 0.4402
318.15 K, x1 = 0.9 | 833.95 | 0.5152
318.15 K, x1 = 1 | 854.67 | 0.558
323.15 K, x1 = 0.1 | 655.31 | 0.266
323.15 K, x1 = 0.15 | 666.68 | 0.2755
323.15 K, x1 = 0.2 | 678.65 | 0.2868
323.15 K, x1 = 0.3 | 700.66 | 0.3076
323.15 K, x1 = 0.5 | 744.37 | 0.3569
323.15 K, x1 = 0.7 | 787.95 | 0.4208
323.15 K, x1 = 0.9 | 829.29 | 0.4899
323.15 K, x1 = 1 | 849.9 | 0.5285
328.15 K, x1 = 0.1 | 650.53 | 0.256
328.15 K, x1 = 0.15 | 661.91 | 0.2652
328.15 K, x1 = 0.2 | 673.9 | 0.2759
328.15 K, x1 = 0.3 | 695.91 | 0.2959
328.15 K, x1 = 0.5 | 739.68 | 0.3428
328.15 K, x1 = 0.7 | 783.25 | 0.4027
328.15 K, x1 = 0.9 | 824.61 | 0.4666
328.15 K, x1 = 1 | 845.12 | 0.5019
333.15 K, x1 = 0.1 | 645.7 | 0.2468
333.15 K, x1 = 0.15 | 657.07 | 0.2556
333.15 K, x1 = 0.2 | 669.12 | 0.2658
333.15 K, x1 = 0.3 | 691.11 | 0.2849
333.15 K, x1 = 0.5 | 734.96 | 0.3297
333.15 K, x1 = 0.7 | 778.51 | 0.3862
333.15 K, x1 = 0.9 | 819.9 | 0.4455
333.15 K, x1 = 1 | 840.35 | 0.4778
